Our source for the Ki values is ChEMBL document CHEMBL6103659, “Structural Studies of the Dopamine D4 Receptor Antagonist Sonepiprazole as an Inhibitor of Human Carbonic Anhydrases” (ACS Med Chem Lett, 2025).

Among the targets are Carbonic anhydrase 3 (Homo sapiens, UniProt P07451); Carbonic anhydrase 7 (Homo sapiens, UniProt P43166); Carbonic anhydrase 12 (Homo sapiens, UniProt O43570); Carbonic anhydrase 9 (Homo sapiens, UniProt Q16790); Carbonic anhydrase 1 (Homo sapiens, UniProt P00915); Carbonic anhydrase 2 (Homo sapiens, UniProt P00918).

Some results are limits rather than exact numbers.

Sequence of Carbonic anhydrase 3 (P07451 whole entry): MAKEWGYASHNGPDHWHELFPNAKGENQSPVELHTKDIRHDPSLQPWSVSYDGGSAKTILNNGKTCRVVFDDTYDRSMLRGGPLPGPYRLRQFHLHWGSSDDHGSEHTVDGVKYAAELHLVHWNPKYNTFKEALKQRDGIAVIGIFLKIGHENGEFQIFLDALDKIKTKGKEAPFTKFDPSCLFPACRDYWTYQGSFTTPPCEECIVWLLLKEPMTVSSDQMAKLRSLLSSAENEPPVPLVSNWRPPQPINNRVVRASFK
Sequence of Carbonic anhydrase 1 (P00915 whole entry): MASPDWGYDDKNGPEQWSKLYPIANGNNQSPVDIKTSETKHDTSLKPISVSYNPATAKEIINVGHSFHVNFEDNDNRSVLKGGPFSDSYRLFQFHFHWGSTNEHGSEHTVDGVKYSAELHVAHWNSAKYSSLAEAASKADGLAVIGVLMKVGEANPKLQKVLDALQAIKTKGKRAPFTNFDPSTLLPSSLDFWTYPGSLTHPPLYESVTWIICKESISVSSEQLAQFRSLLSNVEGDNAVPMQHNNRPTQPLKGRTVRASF
Sequence of Carbonic anhydrase 12 (O43570 whole entry): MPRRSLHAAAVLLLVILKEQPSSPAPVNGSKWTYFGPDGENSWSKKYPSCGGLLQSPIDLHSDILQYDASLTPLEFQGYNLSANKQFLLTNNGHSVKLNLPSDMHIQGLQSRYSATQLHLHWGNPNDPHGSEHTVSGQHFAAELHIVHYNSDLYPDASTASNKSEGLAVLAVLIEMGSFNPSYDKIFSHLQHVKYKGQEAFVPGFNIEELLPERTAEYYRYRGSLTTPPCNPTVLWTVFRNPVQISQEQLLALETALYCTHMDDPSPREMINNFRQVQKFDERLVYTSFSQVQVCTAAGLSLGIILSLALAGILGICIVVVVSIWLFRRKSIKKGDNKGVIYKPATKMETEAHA
Sequence of Carbonic anhydrase 7 (P43166 whole entry): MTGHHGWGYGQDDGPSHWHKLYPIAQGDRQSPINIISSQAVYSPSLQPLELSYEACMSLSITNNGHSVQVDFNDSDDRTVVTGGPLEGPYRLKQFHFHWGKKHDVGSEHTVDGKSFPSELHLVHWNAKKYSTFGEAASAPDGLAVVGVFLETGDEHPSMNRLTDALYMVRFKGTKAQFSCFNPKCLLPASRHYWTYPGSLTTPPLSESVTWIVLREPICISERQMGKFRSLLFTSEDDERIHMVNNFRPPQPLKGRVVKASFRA

With `NS(=O)(=O)c1ccc(N2CCN(CC[C@@H]3OCCc4ccccc43)CC2)cc1` [SONEPIPRAZOLE], the inhibition constant (Ki) at Carbonic anhydrase 3 is > 10000 nM.
As to `C=CCN1CCCC1CNC(=O)c1cc(S(N)(=O)=O)cc(OC)c1OC` (configuration not stated) [VERALIPRIDE], the Ki is 978 nM on Carbonic anhydrase 7; > 10000 nM on Carbonic anhydrase 3; 23.9 nM at Carbonic anhydrase 12; 31.1 nM at Carbonic anhydrase 9; 2720 nM at Carbonic anhydrase 1; 406 nM on Carbonic anhydrase 2.
